Publication PMC9481026 (PLoS ONE, 2022)
Converted amounts (≈) assume the structure as drawn. “And” between values parts separate entries of the source, which are not always exact repeats. Identical values can stand only once. Like-named read-outs stand apart in the source and are kept apart here.

How the values were obtained:
RVFV strain MP-12 [1] = test: microbe, parasite or virus in culture; assay type: cell-based, Rift Valley fever virus
Staphylo-coccus spp. = test: organism not typed; assay type: cell-based; conditions: for MIC80: read-out: Staphylo-coccus spp. (MIC80, μM)
E. coli = test: microbe, parasite or virus in culture; assay type: cell-based; conditions: for MIC80: Escherichia coli, read-out: E. coli (MIC80, μM)
C. neoformans = test: microbe, parasite or virus in culture; assay type: cell-based; conditions: for MIC80: Cryptococcus neoformans, read-out: C. neoformans (MIC80, μM)
in vitro [2] = conditions: African green monkey
RVFV strain MP-12 [3] = test: microbe, parasite or virus in culture; assay type: cell-based, Rift Valley fever virus; conditions: read-out: A549 EC50
LACV = test: microbe, parasite or virus in culture; assay type: cell-based, La Crosse virus; conditions: for EC50: read-out: LACV EC50
ZIKV = test: microbe, parasite or virus in culture; assay type: cell-based, Zika virus; conditions: for EC50: read-out: ZIKV EC50
in vitro [4] = conditions: human
RVFV MP-12 = test: microbe, parasite or virus in culture; assay type: cell-based, Rift Valley fever virus; conditions: read-out: Estimated EC50
Human RNase H1 = molecular target: T1, Human RNase H1 (Homo sapiens, UniProt O60930); test: biochemical
T1 construct: made in house; host or cells: E. coli
T1 sequence (O60930 1-286): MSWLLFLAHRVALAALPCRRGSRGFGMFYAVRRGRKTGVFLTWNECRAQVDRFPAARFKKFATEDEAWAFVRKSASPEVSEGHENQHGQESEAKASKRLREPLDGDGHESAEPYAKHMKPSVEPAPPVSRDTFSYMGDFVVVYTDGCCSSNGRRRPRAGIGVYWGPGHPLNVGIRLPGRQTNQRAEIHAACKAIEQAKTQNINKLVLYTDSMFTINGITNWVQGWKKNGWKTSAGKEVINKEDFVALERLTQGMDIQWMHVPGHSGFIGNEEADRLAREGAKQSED

in vitro [5] = conditions: human; remark: listed apart in the source
RVFV ZH501 = test: microbe, parasite or virus in culture; assay type: cell-based, Rift Valley fever virus
[6] = Rift Valley fever virus, Vero, read-out: RVFV (EC50, μM)
[7] = Rift Valley fever virus, Vero, 24 h
[8] = Rift Valley fever virus, Vero, read-out: Vero EC50
[9] = Rift Valley fever virus, A549, 24 h
[10] = La Crosse virus, Vero C1008, 24 h
[11] = read-out: Human RNase H1 (IC50)

Row | SMILES | MIC80 (C. neoformans) | EC50 (RVFV strain MP-12 [1]; [7]) | CC50 (in vitro [2]; CC50) | EC50 (RVFV strain MP-12 [1]; read-out: EC50) | EC50 (RVFV MP-12) | IC50 (Human RNase H1; [11]) | Staphylo-coccus spp. (MIC80, μM) (Staphylo-coccus spp.) | C. neoformans (MIC80, μM) (C. neoformans) | EC50 (RVFV strain MP-12 [1]; read-out: Vero EC50) | EC50 (RVFV strain MP-12 [3]) | EC50 (LACV) | EC50 (ZIKV) | CC50 (Vero cells) | CC50 (A549 cells) | CC50 (HepDES19) | EC50 (RVFV MP-12; Rift Valley fever virus, Vero) | other results
1 | CC(C)c1ccc(O)c(=O)c(O)c1 [Compound 46, β-thujaplicinol, reference compound] | 8 µM (≈ 1.44 µg/mL) |  |  |  |  |  |  |  |  |  |  |  |  |  |  |  | EC50 (RVFV strain MP-12 [1]; [6]): 13.8 µM; MIC80 (Staphylo-coccus spp.): 20 µM (≈ 3.6 µg/mL); MIC80 (E. coli): 44 µM (≈ 7.93 µg/mL); CC50 (in vitro [2]; CC50 Vero): > 120 µM
2 | Cc1cc(O)c(=O)c(O)cc1C(=O)c1ccco1 [Compound 309] |  | 1.6 µM | > 120 µM |  |  |  |  |  |  |  |  |  |  |  |  |  | EC50 (RVFV strain MP-12 [1]; [8]): 1.6 µM; EC50 (RVFV strain MP-12 [3]; [9]): 5.9 µM; LACV EC50 (LACV): activity against LACV; EC50 (LACV; [10]): 14.6 µM; ZIKV EC50 (ZIKV): not the unrelated flavivirus, Zika virus; EC50 (ZIKV; Zika virus, Vero C1008, 48 h): > 120 µM; CC50 (in vitro [2]; Vero CC50): > 120 µM; CC50 (in vitro [4]): 98.1 µM
3 | Cc1cc(O)c(=O)c(O)cc1C(=O)c1ccccc1O [Compound 311] |  |  |  | 11.8 µM | 3.16 µM | 26 µM | 67 µM | 15 µM |  |  |  |  |  |  |  |  | E. coli (MIC80, μM) (E. coli): 30 µM
4 | CC(=O)c1c(C)cc(O)c(=O)c(O)c1Br [Compound 320] |  |  |  | 34 µM | 2 µM | 37 µM |  | 49 µM | 34 µM | 90.3 µM | > 120 µM | > 120 µM | > 120 µM | 154 µM | 49.5 µM |  | 
5 | CC(=O)c1c(C)cc(O)c(=O)c(O)c1-c1ccccc1 [Compound 330] |  |  |  | 10.4 µM | 2 µM | 476 µM | 44 µM | 4.0 µM | 10.4 µM | 42.6 µM | > 120 µM | 32.7 µM | > 120 µM | > 240 µM | 56.2 µM |  | 
6 | CC(=O)c1c(C)cc(O)c(=O)c(O)c1-c1cccc2ccccc12 [Compound 331] |  |  |  | 15.8 µM | 2 µM | 448 µM | 67 µM | 11 µM | 15.8 µM | 17.7 µM |  |  | 80.4 µM | > 240 µM | 36.6 µM |  | 
7 | Cc1cc(O)c(=O)c(O)cc1C(=O)c1ccc(Br)cc1 [Compound 358] |  |  |  |  |  | 43 µM |  | 11 µM |  |  |  |  | > 120 µM |  | 12.5 µM |  | EC50 (RVFV strain MP-12 [1]; read-out: RVFV (EC50)): 9 µM; E. coli (MIC80, μM) (E. coli): 20 µM
8 | Cc1cc(O)c(=O)c(O)cc1C(=O)c1ccccc1O [Compound 359] | 24 µM (≈ 6.53 µg/mL) | 5.1 µM | > 120 µM |  |  |  |  |  |  |  |  |  |  |  |  | 4 µM | IC50 (Human RNase H1): 65 µM; CC50 (in vitro [5]): 19.4 µM
9 | Cc1cc(O)c(=O)c(O)c(O)c1C(=O)c1ccc(-c2ccccc2)cc1 [Compound 362] | 24 µM (≈ 8.36 µg/mL) | 2.5 µM | 80 µM |  |  |  |  |  |  |  |  |  |  |  |  | 6 µM | EC50 (RVFV strain MP-12 [1]; [6]): 2.6 µM; IC50 (Human RNase H1): 212 µM; CC50 (Vero cells; African green monkey): 77.8 µM; CC50 (in vitro [5]): 5.4 µM
10 | Cc1cc(O)c(=O)c(O)cc1C(=O)NCc1ccccc1 [Compound 388] |  |  |  |  | 19 µM | 166 µM | 67 µM | 11 µM |  |  |  |  | > 120 µM |  | 19.8 µM |  | EC50 (RVFV strain MP-12 [1]; read-out: RVFV (EC50)): 9 µM; E. coli (MIC80, μM) (E. coli): 67 µM
11 | Cc1cc(O)c(=O)c(O)cc1C(=O)Nc1ccccc1 [Compound 389] |  |  |  |  | 16 µM | 309 µM | 44 µM | 3.5 µM |  |  |  |  | > 120 µM |  | 26.5 µM |  | EC50 (RVFV strain MP-12 [1]; read-out: RVFV (EC50)): 8.8 µM; E. coli (MIC80, μM) (E. coli): 44 µM
12 | Cc1cc(O)c(=O)c(O)cc1C(=O)N1CCCCC1 [Compound 390] |  |  |  | 11.9 µM | 0.1 µM | 106 µM |  | 11 µM | 11.9 µM | 9.4 µM | > 120 µM | > 120 µM | > 120 µM | 224 µM | 29.8 µM |  | 
13 | CC(=Nc1ccc(C(F)(F)F)cc1)c1c(C)cc(=O)n(O)c1O [Compound 517] |  |  |  |  | 13 µM | 135 µM |  | 24 µM | > 120 µM | 95.8 µM | > 120 µM | > 120 µM | > 120 µM | 71.8 µM | 91 µM |  | 
14 | CCc1cccc(N=C(C)c2c(C)cc(=O)n(O)c2O)c1 [Compound 518] |  |  |  | 19.5 µM | 7 µM | 436 µM | 67 µM | 24 µM | 20 µM | 17.2 µM | > 120 µM | > 120 µM | > 120 µM | 16.5 µM | 91.4 µM |  | 
15 | O=C(Cc1ccccc1)Sc1cccccc1=O [Compound 680] | 0.4 µM (≈ 0.103 µg/mL) | 6.3 µM | > 120 µM |  |  |  |  |  |  |  |  | 23 µM |  |  |  | 0.3 µM | EC50 (RVFV strain MP-12 [1]; [8]): 6.3 µM; EC50 (RVFV strain MP-12 [3]; [9]): 11.6 µM; EC50 (LACV; [10]): 31.3 µM; EC50 (ZIKV; Zika virus, Vero C1008, 48 h): 19.5 µM; IC50 (Human RNase H1): 652 µM; MIC80 (Staphylo-coccus spp.): 13 µM (≈ 3.33 µg/mL); MIC80 (E. coli): 30 µM (≈ 7.69 µg/mL); CC50 (in vitro [2]; Estimated CC50): 0.9 µM; CC50 (in vitro [2]; Vero CC50): > 120 µM
16 | CC[C@H](C)[C@H](NC(=O)OCC1c2ccccc2-c2ccccc21)C(=O)Sc1cccccc1=O [Compound 686] |  |  |  |  | 2.16 µM | > 500 µM | 30 µM | 0.85 µM | 6.3 µM | 7.9 µM | 45.4 µM | > 120 µM | > 120 µM | 67.6 µM | 42.6 µM |  | 
17 | CCCCSc1ccc(SCCCC)c(O)c(=O)c1O [Compound 694] | 2.3 µM (≈ 0.723 µg/mL) | 3.7 µM | > 120 µM |  |  |  |  |  |  |  |  |  |  |  |  | 5.62 µM | MIC80 (Staphylo-coccus spp.): 9 µM (≈ 2.83 µg/mL); CC50 (Vero cells; African green monkey): 22.1 µM; CC50 (in vitro [5]): 1.8 µM
18 | CC(C)Sc1ccc(SC(C)C)c(O)c(=O)c1O [Compound 696] | 1.5 µM (≈ 0.43 µg/mL) | 6 µM |  |  |  |  |  |  |  |  |  |  |  |  |  | 12 µM | MIC80 (Staphylo-coccus spp.): 13 µM (≈ 3.72 µg/mL); MIC80 (E. coli): 20 µM (≈ 5.73 µg/mL); CC50 (in vitro [5]): 14.1 µM
19 | O=c1c(O)cccc(S(=O)(=O)c2cccc3ccccc23)c1O [Compound 698] |  |  |  | 11.7 µM | 8 µM | 261 µM | 20 µM | 38 µM |  |  |  |  |  |  | 13.7 µM |  | E. coli (MIC80, μM) (E. coli): 44 µM
20 | O=c1c(O)cccc(SCc2ccccc2)c1O [Compound 702] | 0.55 µM (≈ 0.143 µg/mL) | 8.8 µM | > 120 µM |  |  |  |  |  |  |  |  |  |  |  |  | 7 µM | IC50 (Human RNase H1): 34 µM; MIC80 (Staphylo-coccus spp.): 13 µM (≈ 3.38 µg/mL); MIC80 (E. coli): 9 µM (≈ 2.34 µg/mL); CC50 (in vitro [2]; CC50 Vero): 35.6 µM
21 | O=c1c(O)cccc(SCCc2ccccc2)c1O [Compound 704] |  |  |  | 14.3 µM | 14 µM | 25 µM | 20 µM | 1.8 µM | 14.3 µM | 20 µM | 89.2 µM | 19.5 µM | > 120 µM | 43 µM | 21.6 µM |  | 
22 | CCCCCCSc1cccc(O)c(=O)c1O [Compound 840] |  |  |  | 31.6 µM | 14 µM | 73 µM |  | 1.0 µM | 31.6 µM | 15.4 µM | > 120 µM | > 120 µM | > 120 µM | 142 µM | 21.5 µM |  | 
23 | Cc1cc(O)c(=O)c(O)cc1C(=O)N1CCN(C(c2ccc(F)cc2)c2ccc(F)cc2)CC1 [Compound 1017] | 6 µM (≈ 2.8 µg/mL) | 8 µM | > 120 µM |  |  |  |  |  |  |  |  |  |  |  |  | 3.44 µM | IC50 (Human RNase H1): 30 µM; CC50 (Vero cells; African green monkey): 54.7 µM; CC50 (in vitro [5]): 3.9 µM
24 | O=c1nc(NO)ccn1[C@@H]1O[C@H](CO)[C@@H](O)[C@H]1O [EIDD-1931, β-D-N4-Hydroxycytidine, reference compound] |  |  |  | 5.16 µM and 5.2 µM | 5 µM |  |  |  |  |  | 3.6 µM | 1.7 µM and 1.74 µM | > 120 µM |  |  |  | EC50 (RVFV ZH501; read-out: EC50): 30.5 µM
25 | NC(=O)c1ncn([C@@H]2O[C@H](CO)[C@@H](O)[C@H]2O)n1 [Ribavirin, reference compound] |  | 22 µM | > 120 µM |  |  |  |  |  |  |  |  |  |  |  |  | 22 µM | EC50 (RVFV ZH501; Rift Valley fever virus, Vero, 18 h): 73.6 µM
